According to ChEMBL document CHEMBL3046789, “Effect of s-metolachlor application timing on cabbage tolerance” (Crop Prot, 2007):

Key:
Format in all cases: organism-based
[1] = tested on: Brassica oleracea var. capitata; assay: Phyototoxicity against Brassica oleracea var. capitata (cabbage) assessed as crop injury at 1600 g a.i./ha applied 1 to 2 days prior to transplantation followed by incorporation into soil measured on day 14 post-transplantation; details: in vivo, other
[2] = tested on: Brassica oleracea var. capitata; assay: Phytotoxicity against Brassica oleracea var. capitata (cabbage) assessed as yield at 1600 g a.i./ha applied 1 to 2 days prior to transplantation (reference value: 25.9 tons/ha); details: in vivo, other
[3] = tested on: Brassica oleracea var. capitata; assay: Phytotoxicity against Brassica oleracea var. capitata (cabbage) assessed as cabbage head weight at 1600 g a.i/ha applied 1 to 2 days prior to transplantation (reference value: 2465 g); details: in vivo, other
[4] = tested on: Brassica oleracea var. capitata; assay: Phyototoxicity against Brassica oleracea var. capitata (cabbage) assessed as crop injury at 800 g a.i./ha applied 1 to 2 days prior to transplantation followed by incorporation into soil measured on day 28 post-transplantation; details: in vivo, other
[5] = tested on: Brassica oleracea var. capitata; assay: Phyototoxicity against Brassica oleracea var. capitata (cabbage) assessed as crop injury at 2400 g a.i./ha applied 1 to 2 days prior to transplantation measured on day 28 post-transplantation; details: in vivo, other
[6] = tested on: Brassica oleracea var. capitata; assay: Phyototoxicity against Brassica oleracea var. capitata (cabbage) assessed as crop injury at 1600 g a.i./ha applied 1 to 2 days prior to transplantation measured on day 14 post-transplantation; details: in vivo, other
[7] = tested on: Brassica oleracea var. capitata; assay: Phyototoxicity against Brassica oleracea var. capitata (cabbage) assessed as crop injury at 2400 g a.i./ha applied 1 to 2 days after transplantation measured on day 28 post-transplantation; details: in vivo, other
[8] = tested on: Brassica oleracea var. capitata; assay: Phyototoxicity against Brassica oleracea var. capitata (cabbage) assessed as crop injury at 800 g a.i./ha applied 1 to 2 days prior to transplantation followed by incorporation into soil measured on day 7 post-transplantation; details: in vivo, other
[9] = tested on: Brassica oleracea var. capitata; assay: Phyototoxicity against Brassica oleracea var. capitata (cabbage) assessed as crop injury at 2400 g a.i./ha applied 1 to 2 days prior to transplantation measured on day 7 post-transplantation; details: in vivo, other
[10] = tested on: Brassica oleracea var. capitata; assay: Phytotoxicity against Brassica oleracea var. capitata (cabbage) assessed as yield at 2400 g a.i./ha applied 1 to 2 days after transplantation (reference value: 25.9 tons/ha); details: in vivo, other
[11] = tested on: Brassica oleracea var. capitata; assay: Phytotoxicity against Brassica oleracea var. capitata (cabbage) assessed as cabbage head weight at 2400 g a.i/ha applied 1 to 2 days after transplantation (reference value: 2465 g); details: in vivo, other
[12] = tested on: Brassica oleracea var. capitata; assay: Phyototoxicity against Brassica oleracea var. capitata (cabbage) assessed as crop injury at 800 g a.i./ha applied 1 to 2 days prior to transplantation measured on day 28 post-transplantation; details: in vivo, other
[13] = tested on: Brassica oleracea var. capitata; assay: Phyototoxicity against Brassica oleracea var. capitata (cabbage) assessed as crop injury at 2400 g a.i./ha applied 1 to 2 days after transplantation measured on day 14 post-transplantation; details: in vivo
[14] = tested on: Brassica oleracea var. capitata; assay: Phytotoxicity against Brassica oleracea var. capitata (cabbage) assessed as yield at 800 g a.i./ha applied 1 to 2 days prior to transplantation followed by incorporation into soil (reference value: 25.9 tons/ha); details: in vivo, other
[15] = tested on: Brassica oleracea var. capitata; assay: Phytotoxicity against Brassica oleracea var. capitata (cabbage) assessed as cabbage head weight at 1600 g a.i/ha applied 1 to 2 days after transplantation (reference value: 2465 g); details: in vivo, other
[16] = tested on: Brassica oleracea var. capitata; assay: Phyototoxicity against Brassica oleracea var. capitata (cabbage) assessed as crop injury at 1600 g a.i./ha applied 1 to 2 days after transplantation measured on day 14 post-transplantation; details: in vivo
[17] = tested on: Brassica oleracea var. capitata; assay: Phytotoxicity against Brassica oleracea var. capitata (cabbage) assessed as yield at 800 g a.i./ha applied 1 to 2 days after transplantation (reference value: 25.9 tons/ha); details: in vivo, other
[18] = tested on: Brassica oleracea var. capitata; assay: Phytotoxicity against Brassica oleracea var. capitata (cabbage) assessed as cabbage head weight at 2400 g a.i/ha applied 1 to 2 days prior to transplantation followed by incorporation into soil (reference value: 2465 g); details: in vivo, other
[19] = tested on: Brassica oleracea var. capitata; assay: Phyototoxicity against Brassica oleracea var. capitata (cabbage) assessed as crop injury at 1600 g a.i./ha applied 1 to 2 days prior to transplantation followed by incorporation into soil measured on day 7 post-transplantation; details: in vivo, other
[20] = tested on: Brassica oleracea var. capitata; assay: Phytotoxicity against Brassica oleracea var. capitata (cabbage) assessed as yield at 1600 g a.i./ha applied 1 to 2 days prior to transplantation followed by incorporation into soil (reference value: 25.9 tons/ha); details: in vivo, other
[21] = tested on: Brassica oleracea var. capitata; assay: Phyototoxicity against Brassica oleracea var. capitata (cabbage) assessed as crop injury at 1600 g a.i./ha applied 1 to 2 days prior to transplantation measured on day 28 post-transplantation; details: in vivo, other
[22] = tested on: Brassica oleracea var. capitata; assay: Phytotoxicity against Brassica oleracea var. capitata (cabbage) assessed as cabbage head weight at 800 g a.i/ha applied 1 to 2 days after transplantation (reference value: 2465 g); details: in vivo, other
[23] = tested on: Brassica oleracea var. capitata; assay: Phyototoxicity against Brassica oleracea var. capitata (cabbage) assessed as crop injury at 800 g a.i./ha applied 1 to 2 days after transplantation measured on day 28 post-transplantation; details: in vivo, other
[24] = tested on: Brassica oleracea var. capitata; assay: Phyototoxicity against Brassica oleracea var. capitata (cabbage) assessed as crop injury at 800 g a.i./ha applied 1 to 2 days after transplantation measured on day 7 post-transplantation; details: in vivo, other
[25] = tested on: Brassica oleracea var. capitata; assay: Phytotoxicity against Brassica oleracea var. capitata (cabbage) assessed as cabbage head weight at 2400 g a.i/ha applied 1 to 2 days prior to transplantation (reference value: 2465 g); details: in vivo, other
[26] = tested on: Brassica oleracea var. capitata; assay: Phytotoxicity against Brassica oleracea var. capitata (cabbage) assessed as cabbage head weight at 1600 g a.i/ha applied 1 to 2 days prior to transplantation followed by incorporation into soil (reference value: 2465 g); details: in vivo, other
[27] = tested on: Brassica oleracea var. capitata; assay: Phyototoxicity against Brassica oleracea var. capitata (cabbage) assessed as crop injury at 800 g a.i./ha applied 1 to 2 days prior to transplantation measured on day 14 post-transplantation; details: in vivo, other
[28] = tested on: Brassica oleracea var. capitata; assay: Phytotoxicity against Brassica oleracea var. capitata (cabbage) assessed as cabbage head weight at 800 g a.i/ha applied 1 to 2 days prior to transplantation (reference value: 2465 g); details: in vivo
[29] = tested on: Brassica oleracea var. capitata; assay: Phyototoxicity against Brassica oleracea var. capitata (cabbage) assessed as crop injury at 2400 g a.i./ha applied 1 to 2 days prior to transplantation followed by incorporation into soil measured on day 28 post-transplantation; details: in vivo, other
[30] = tested on: Brassica oleracea var. capitata; assay: Phytotoxicity against Brassica oleracea var. capitata (cabbage) assessed as decrease in number of marketable cabbage heads at 800 to 2400 g i.a./ha applied 1 to 2 days after transplantation relative to control; details: in vivo
[31] = tested on: Brassica oleracea var. capitata; assay: Phyototoxicity against Brassica oleracea var. capitata (cabbage) assessed as crop injury at 800 g a.i./ha applied 1 to 2 days after transplantation measured on day 14 post-transplantation; details: in vivo
[32] = tested on: Brassica oleracea var. capitata; assay: Phytotoxicity against Brassica oleracea var. capitata (cabbage) assessed as cabbage head weight at 800 g a.i/ha applied 1 to 2 days prior to transplantation followed by incorporation into soil (reference value: 2465 g); details: in vivo, other
[33] = tested on: Brassica oleracea var. capitata; assay: Phyototoxicity against Brassica oleracea var. capitata (cabbage) assessed as crop injury at 2400 g a.i./ha applied 1 to 2 days prior to transplantation followed by incorporation into soil measured on day 7 post-transplantation; details: in vivo, other
[34] = tested on: Brassica oleracea var. capitata; assay: Phyototoxicity against Brassica oleracea var. capitata (cabbage) assessed as crop injury at 2400 g a.i./ha applied 1 to 2 days prior to transplantation followed by incorporation into soil measured on day 14 post-transplantation; details: in vivo, other
[35] = tested on: Brassica oleracea var. capitata; assay: Phyototoxicity against Brassica oleracea var. capitata (cabbage) assessed as crop injury at 1600 g a.i./ha applied 1 to 2 days after transplantation measured on day 7 post-transplantation; details: in vivo, other
[36] = tested on: Brassica oleracea var. capitata; assay: Phytotoxicity against Brassica oleracea var. capitata (cabbage) assessed as decrease in number of marketable cabbage heads at 800 to 2400 g i.a./ha applied 1 to 2 days prior to transplantation relative to control; details: in vivo, other
[37] = tested on: Brassica oleracea var. capitata; assay: Phytotoxicity against Brassica oleracea var. capitata (cabbage) assessed as yield at 800 g a.i./ha applied 1 to 2 days prior to transplantation (reference value: 25.9 tons/ha); details: in vivo, other
[38] = tested on: Brassica oleracea var. capitata; assay: Phyototoxicity against Brassica oleracea var. capitata (cabbage) assessed as crop injury at 800 g a.i./ha applied 1 to 2 days prior to transplantation followed by incorporation into soil measured on day 14 post-transplantation; details: in vivo, other
[39] = tested on: Brassica oleracea var. capitata; assay: Phytotoxicity against Brassica oleracea var. capitata (cabbage) assessed as yield at 2400 g a.i./ha applied 1 to 2 days prior to transplantation followed by incorporation into soil (reference value: 25.9 tons/ha); details: in vivo, other
[40] = tested on: Brassica oleracea var. capitata; assay: Phytotoxicity against Brassica oleracea var. capitata (cabbage) assessed as yield at 2400 g a.i./ha applied 1 to 2 days prior to transplantation (reference value: 25.9 tons/ha); details: in vivo, other
[41] = tested on: Brassica oleracea var. capitata; assay: Phyototoxicity against Brassica oleracea var. capitata (cabbage) assessed as crop injury at 1600 g a.i./ha applied 1 to 2 days after transplantation measured on day 28 post-transplantation; details: in vivo, other
[42] = tested on: Brassica oleracea var. capitata; assay: Phyototoxicity against Brassica oleracea var. capitata (cabbage) assessed as crop injury at 800 g a.i./ha applied 1 to 2 days prior to transplantation measured on day 7 post-transplantation; details: in vivo, other
[43] = tested on: Brassica oleracea var. capitata; assay: Phytotoxicity against Brassica oleracea var. capitata (cabbage) assessed as yield at 1600 g a.i./ha applied 1 to 2 days after transplantation (reference value: 25.9 tons/ha); details: in vivo, other
[44] = tested on: Brassica oleracea var. capitata; assay: Phyototoxicity against Brassica oleracea var. capitata (cabbage) assessed as crop injury at 1600 g a.i./ha applied 1 to 2 days prior to transplantation measured on day 7 post-transplantation; details: in vivo, other
[45] = tested on: Brassica oleracea var. capitata; assay: Phyototoxicity against Brassica oleracea var. capitata (cabbage) assessed as crop injury at 2400 g a.i./ha applied 1 to 2 days prior to transplantation measured on day 14 post-transplantation; details: in vivo, other
[46] = tested on: Brassica oleracea var. capitata; assay: Phytotoxicity against Brassica oleracea var. capitata (cabbage) assessed as decrease in number of marketable cabbage heads at 800 to 2400 g i.a./ha applied 1 to 2 days prior to transplantation followed by incorporation into soil relative to control; details: in vivo, other
[47] = tested on: Brassica oleracea var. capitata; assay: Phyototoxicity against Brassica oleracea var. capitata (cabbage) assessed as crop injury at 1600 g a.i./ha applied 1 to 2 days prior to transplantation followed by incorporation into soil measured on day 28 post-transplantation; details: in vivo, other
[48] = tested on: Brassica oleracea var. capitata; assay: Phyototoxicity against Brassica oleracea var. capitata (cabbage) assessed as crop injury at 2400 g a.i./ha applied 1 to 2 days after transplantation measured on day 7 post-transplantation; details: in vivo, other

`CCc1cccc(C)c1N(C(=O)CCl)[C@@H](C)COC` [S-METOLACHLOR] was tested, and the Activity [1] was 0%, the Crop_yield [2] was 27.1 tons/ha and the Activity [3] was 2540 g. The Activity [4] was 0%, the Activity [5] was 0% and the Activity [6] was 1%. It also gave an Activity [7] of 0%, an Activity [8] of 2% and an Activity [9] of 3%. For the same compound, the Crop_yield [10] was 27.7 tons/ha, the Activity [11] was 2676 g and the Activity [12] was 0%. For the same compound, the Activity [13] was 0%, the Crop_yield [14] was 26.4 tons/ha and the Activity [15] was 2556 g. The Activity [16] was 0%, the Crop_yield [17] was 24.5 tons/ha and the Activity [18] was 2421 g. The Activity [19] was 3%, the Crop_yield [20] was 23.4 tons/ha and the Activity [21] was 0%. For the same compound, the Activity [22] was 2310 g, the Activity [23] was 0% and the Activity [24] was 3%. For the same compound, the Activity [25] was 2460 g, the Activity [26] was 2255 g and the Activity [27] was 0%. For the same compound, the Activity [28] was 2386 g, the Activity [29] was 0% and the Activity [30] was “Non-toxic”. The Activity [31] was 1%, the Activity [32] was 2413 g and the Activity [33] was 1%. The Activity [34] was 0%, the Activity [35] was 2% and the Activity [36] was “Non-toxic”. It also gave a Crop_yield [37] of 26.7 tons/ha, an Activity [38] of 0% and a Crop_yield [39] of 25.7 tons/ha. It also gave a Crop_yield [40] of 25.4 tons/ha, an Activity [41] of 0% and an Activity [42] of 2%. The Crop_yield [43] was 26.4 tons/ha, the Activity [44] was 2% and the Activity [45] was 0%. For the same compound, the Activity [46] was “Non-toxic”, the Activity [47] was 0% and the Activity [48] was 0%.
